The source of these data is patent US20260297035A1, “PROTEIN KINASE INHIBITORS AND USES THEREOF” (DELiver Therapeutics, Inc., priority 2023, published 2026).

The structures appear in SMILES notation.

The series can be described thus: non-GLP multi-dose toxicity study (dose escalation, daily IP injection). Format: in vivo, mouse (6-week-old Balb/c females). The conditions noted are these: mice. As for the experimental part: An initial non-GLP multi-dose toxicity study of Cmpd11 and Cmpd66 was performed, which included a comparison to COM1 and COM3 clinical compounds. […] Body weights were recorded 2× weekly for healthy mice followed by weekly in the recovery phase. Blood draws were taken, retro-orbitally, every other week (for a total of three blood draws per group) to determine the plasma levels of compounds throughout the duration of the study (unless mice were euthanized prior to completion of the 28-day dosing period). […] Any animals showing more than 9% weight loss were weighed every day and animals were euthanized after a weight loss of 15% or more or evidence of high distress (e.g., listless, hunched posture, high grimace score). Also, plasma samples were drawn at euthanasia. Control groups included vehicle only and no manipulation.
A summary of the study is illustrated in FIG. 14. There are six groups with 90 mice total and following is an overview of groups for the study.
The following are criteria for dose escalation and staggering of group starting points. Animals in each group are monitored after the initial dose for 3-4 days, and if there is no observed dose-limiting toxicity (DLT), then a separate cohort of naïve animals are administered the next higher dose level. Note that each cohort of animals receives the same drug and drug dose for the duration of the 28-day dosing period unless euthanasia is required. Animals in the second, dose-escalated group, are then monitored for 3-4 days, and if there is no observed DLT, animals from a fresh cohort are administered the next higher dose level, while continuing with the former cohorts up to 5 dose levels total. Animals in each cohort then are monitored after the third dose for 7 days, and if there is no observed DLT, then animals are administered the next higher doses. If DLT is observed during a monitoring period for any dose level, a subsequent dose is reduced by a level that is intermediate between the highest tolerated level tested and the minimum toxic level tested.

For `Cc1ccc(Nc2ncc3cccc(-c4ccc(F)cc4OC(C)C)c3n2)cc1NC(=O)c1ccc(C(=O)N(C)C)cc1` [Cmpd11, N1-(5-((8-(4-fluoro-2-isopropoxyphenyl)quinazolin-2-yl)amino)-2-methylphenyl)-N4,N4-dimethylterephthalamide], under “at doses required to reach the in vitro K562-Luc EC50 plasma levels in vivo, early results”, the “tolerability relative to COM1” value was “more tolerable than COM1”. In addition, the tolerability entry by setting is: (daily IP, 1.5 mg/kg, through day 24) “well tolerated”; (daily IP, 4.5 mg/kg, through day 14) “well tolerated”. Moreover, for the setting “mouse, in vivo, daily IP, 18 mg/kg (12X EC50), by day 7, read-out: expiration of animals (2 out of 5)”, the mortality at 168 h stood at 40%.
